Test systems include COLO 205 colon; SNB-75 CNS; HL-60(TB) leukemia; HCT-116 colon; IGROV1 ovarian; SK-MEL-28 melanoma; HOP-62 NSCLC; HOP-92 NSCLC; U251 CNS; SF-295 CNS.
Assay in all cases: growth of human tumour cells (NCI), 48 h

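Test compounds were applied to cells in 96-well plates for 48 hours at 5 doses. GI50 = concentration required for 50% inhibition of growth. At the TGI there is no net growth.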 Bounds are passed on as bounds.

In PubChem BioAssay (NCI) one finds GI50 and TGI data, which are given here for ten compounds.

`ClCc1ccc(-c2ccc(Cn3cnc4c(Cl)nc(Cl)nc43)cc2)cc1`: the GI50 with COLO 205 colon was 2720 nM; in the assay with SNB-75 CNS, 2630 nM; in the assay on HL-60(TB) leukemia it was 3250 nM; in the assay with HCT-116 colon, 1580 nM; with IGROV1 ovarian, 885 nM; in the assay on SK-MEL-28 melanoma, 1650 nM. The GI50 in the assay with HOP-62 NSCLC was 1920 nM; in the assay on HOP-92 NSCLC, 1980 nM; with U251 CNS, 1890 nM; in the assay with SF-295 CNS, 2690 nM. Further, the TGI is 8.53 µM with COLO 205 colon; 7.81 µM with SNB-75 CNS; greater than 100 µM with HL-60(TB) leukemia; 2.92 µM in the assay on HCT-116 colon; 2.28 µM with IGROV1 ovarian; 3.1 µM with SK-MEL-28 melanoma. The TGI in the assay on HOP-62 NSCLC was 4 µM; with HOP-92 NSCLC, 5.56 µM; in the assay with U251 CNS it was 3.64 µM; in the assay with SF-295 CNS, 6.5 µM.

On to `CC#CS(=O)(=O)c1ccccc1`, for which the TGI amounted to 24.7 µM in the assay on COLO 205 colon; 13.9 µM with SNB-75 CNS; 3.81 µM in the assay on HL-60(TB) leukemia; 17.6 µM in the assay on HCT-116 colon; 25.4 µM in the assay with IGROV1 ovarian; 12.6 µM in the assay on SK-MEL-28 melanoma. The TGI in the assay with HOP-62 NSCLC worked out at 47.2 µM; with HOP-92 NSCLC it was 6.96 µM; with U251 CNS, 25.5 µM; in the assay with SF-295 CNS, 14.5 µM.

Turning to `Nc1ncnc2c1nc(-c1ccccc1)n2C1OC(CO)C(O)C1O` (stereo not given), the TGI in the assay with COLO 205 colon, in the assay on SNB-75 CNS, in the assay on HL-60(TB) leukemia, with HCT-116 colon, in the assay on IGROV1 ovarian and in the assay on SK-MEL-28 melanoma was greater than 100 µM throughout. In addition, the TGI in the assay with HOP-62 NSCLC, in the assay with HOP-92 NSCLC, in the assay with U251 CNS and in the assay with SF-295 CNS was greater than 100 µM in each case.

Regarding `Cc1c(C(=O)CC(=O)C(=O)Nc2ccc(Cl)c(Cl)c2)[n+](=O)c2ccccc2n1[O-]`, the TGI with COLO 205 colon was 36.1 µM; with SNB-75 CNS, 48.9 µM; in the assay on HL-60(TB) leukemia it was 47.4 µM; in the assay on HCT-116 colon, 35.4 µM; in the assay on IGROV1 ovarian, 50.8 µM; in the assay on SK-MEL-28 melanoma, greater than 100 µM. The TGI in the assay with HOP-62 NSCLC was greater than 100 µM; with HOP-92 NSCLC, greater than 100 µM; in the assay on U251 CNS it was 72.3 µM; in the assay with SF-295 CNS, greater than 100 µM.

As for `O=C(O)CC(Nc1ccccc1)C(=O)O` (stereo not given), the TGI in the assay with COLO 205 colon, with SNB-75 CNS, with HL-60(TB) leukemia, in the assay on HCT-116 colon, in the assay with IGROV1 ovarian and in the assay with SK-MEL-28 melanoma was greater than 100 µM in each case. For the same compound, the TGI in the assay on HOP-62 NSCLC, in the assay with HOP-92 NSCLC, with U251 CNS and in the assay on SF-295 CNS was greater than 100 µM each time.

With `C=C1C(=O)O[C@H]2[C@H]1CC/C(Cn1cc(Cn3ccc4ccccc43)nn1)=C\CC[C@@]1(C)O[C@@H]21`, the GI50 in the assay with COLO 205 colon was 1710 nM; in the assay on SNB-75 CNS it was 2610 nM; in the assay with HL-60(TB) leukemia, 1200 nM; in the assay on HCT-116 colon, 762 nM; in the assay with IGROV1 ovarian, 1860 nM; with SK-MEL-28 melanoma, 1670 nM. The GI50 is 6960 nM in the assay on HOP-62 NSCLC, 1010 nM in the assay with HOP-92 NSCLC, 3420 nM in the assay on U251 CNS and 7870 nM in the assay on SF-295 CNS. The TGI in the assay with COLO 205 colon came to 3.41 µM; in the assay on SNB-75 CNS, 15.6 µM; with HL-60(TB) leukemia, 3.79 µM; with HCT-116 colon, 2.15 µM; with IGROV1 ovarian, 3.61 µM; in the assay with SK-MEL-28 melanoma, 3.25 µM. Also, the TGI is 20.1 µM with HOP-62 NSCLC, 2.29 µM in the assay on HOP-92 NSCLC, 12.1 µM with U251 CNS and 21.3 µM with SF-295 CNS.

For `CCOC(=O)/C(=C/c1ccc([N+](=O)[O-])cc1)C(=O)c1ccccc1`, the GI50 was 1950 nM in the assay with COLO 205 colon; 1720 nM in the assay with SNB-75 CNS; 2340 nM in the assay with HL-60(TB) leukemia; 2330 nM in the assay with HCT-116 colon; 2530 nM in the assay with IGROV1 ovarian; 2100 nM in the assay with SK-MEL-28 melanoma. In addition, the GI50 in the assay on HOP-62 NSCLC was 2280 nM; with HOP-92 NSCLC, 2010 nM; in the assay on U251 CNS, 2130 nM; in the assay with SF-295 CNS it was 2780 nM. The TGI in the assay on COLO 205 colon was found to be 3.89 µM; with SNB-75 CNS, 4.22 µM; in the assay on HL-60(TB) leukemia, 5.87 µM; with HCT-116 colon, 5.3 µM; in the assay with IGROV1 ovarian it was 7.4 µM; in the assay with SK-MEL-28 melanoma it was 4.73 µM. The TGI came to 6.07 µM in the assay on HOP-62 NSCLC, 4.45 µM with HOP-92 NSCLC, 4.48 µM in the assay on U251 CNS and 8.5 µM in the assay on SF-295 CNS.

As for `CCCc1cc2cc(-n3nc(C)c4c3CC(C)(C)CC4=O)cc(NC3CCC(O)CC3)c2c(=O)[nH]1` (stereo not given), the GI50 in the assay with COLO 205 colon is 77.5 nM; with SNB-75 CNS, 1730 nM; with HL-60(TB) leukemia, 130 nM; in the assay with HCT-116 colon, 63.4 nM; in the assay with IGROV1 ovarian, 134 nM; with SK-MEL-28 melanoma, 232 nM. In addition, the GI50 in the assay with HOP-62 NSCLC was 129 nM; in the assay with HOP-92 NSCLC, 194 nM; in the assay with U251 CNS it was 607 nM; with SF-295 CNS, 307 nM. The TGI with COLO 205 colon was 1.22 µM; with SNB-75 CNS it was 39.6 µM; in the assay with HL-60(TB) leukemia, 1.2 µM; in the assay on HCT-116 colon it was greater than 100 µM; in the assay on IGROV1 ovarian, greater than 100 µM; in the assay on SK-MEL-28 melanoma, greater than 100 µM. In addition, the TGI in the assay on HOP-62 NSCLC is greater than 100 µM; in the assay on HOP-92 NSCLC it was 1.8 µM; in the assay on U251 CNS, greater than 100 µM; with SF-295 CNS it was 2.06 µM.

As for `COc1ccc2c(c1)CCc1c(-c3noc4c3CCc3cc(OC)ccc3-4)noc1-2`, the TGI in the assay with COLO 205 colon, in the assay on SNB-75 CNS, in the assay on HL-60(TB) leukemia, in the assay on HCT-116 colon, with IGROV1 ovarian and with SK-MEL-28 melanoma was greater than 100 µM in each case. In addition, the TGI with HOP-62 NSCLC, in the assay with HOP-92 NSCLC, in the assay with U251 CNS and with SF-295 CNS was greater than 100 µM throughout.

Turning to `COC(=O)C(C)NP(=O)(OCc1ccc(Cn2cnc3c(=O)[nH]c(N)nc32)cc1)Oc1ccccc1` (stereo not given), the GI50 in the assay with COLO 205 colon, in the assay with SNB-75 CNS, in the assay with HL-60(TB) leukemia, with HCT-116 colon, with IGROV1 ovarian and in the assay with SK-MEL-28 melanoma was greater than 100000 nM throughout. Also, the GI50 with HOP-62 NSCLC, with HOP-92 NSCLC, in the assay on U251 CNS and with SF-295 CNS was greater than 100000 nM each time. In addition, the TGI in the assay with COLO 205 colon, with SNB-75 CNS, in the assay with HL-60(TB) leukemia, with HCT-116 colon, with IGROV1 ovarian and in the assay on SK-MEL-28 melanoma was greater than 100 µM in each case. For the same compound, the TGI in the assay with HOP-62 NSCLC, in the assay on HOP-92 NSCLC, in the assay with U251 CNS and with SF-295 CNS was greater than 100 µM each time.
